Test results published in patent US20210221784A1, “COMPOUNDS AND COMPOSITIONS FOR THE TREATMENT OF PAIN” (Université de Strasbourg, priority 2018, published 2021).

Legend:
[1] = biological target: T1, human NPFFR1 (hNPFFR1) receptor (Homo sapiens, UniProt Q9GZQ6); assay: Human NPFFR1 evaluation using BRET biosensors in HEK-293 T cells; type: cell-based; settings: hNPFFR1 in HEK-293 T cells, stimulated by EC80 RFRP-3, read-out: IC50 of antagonist activity
T1 construct: expressed in transfected cells; host or cells: HEK-293 T cells, transient co-transfection
T1 sequence (Q9GZQ6 whole entry): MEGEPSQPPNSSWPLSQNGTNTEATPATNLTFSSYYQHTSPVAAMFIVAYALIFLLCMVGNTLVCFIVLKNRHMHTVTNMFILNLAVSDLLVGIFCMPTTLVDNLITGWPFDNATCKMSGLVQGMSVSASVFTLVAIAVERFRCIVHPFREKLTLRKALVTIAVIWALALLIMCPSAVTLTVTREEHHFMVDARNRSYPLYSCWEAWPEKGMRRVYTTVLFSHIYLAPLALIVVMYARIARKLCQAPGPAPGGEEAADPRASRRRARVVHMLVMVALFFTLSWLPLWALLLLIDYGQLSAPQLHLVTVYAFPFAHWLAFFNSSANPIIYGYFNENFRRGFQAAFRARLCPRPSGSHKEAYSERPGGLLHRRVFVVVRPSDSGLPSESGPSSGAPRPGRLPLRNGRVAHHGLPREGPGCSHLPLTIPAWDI
Protocol: Compounds of the present invention were tested successively for their agonist and antagonist activities on human NPFFR1 (hNPFFR1) receptor transiently over-expressed in HEK-293 T cells. Compounds exert agonist activity if, by themselves in absence of neuropeptide RFRP-3 (also named NPVF) they activate hNPFFR1; and they exert antagonist activity if they decrease the action of RFRP-3 on the receptor. The assay used to measure compound activity is based on BRET (Bioluminescence Resonance Energy Transfer) biosensors and is designed to monitor the plasma membrane translocation of protein that interacts with specific Ga subunit. The specific effector (luciferase tagged: BRET donor) recruited at the membrane will be in close proximity to a plasma membrane anchor (GFP tagged: BRET acceptor) to induce a BRET signal (Ramdan et al, 2006, Chapter 5, Current Protocols in Neuroscience).
HEK-293 T cells are maintained in Dulbecco's Modified Eagle's Medium supplemented with 10% Foetal Calf Serum, 1% Penicillin/Streptomycin at 37° C./5% CO2. Cells are co-transfected using polyethylenimine (25 kDa linear) with four DNA plasmids encoding; hNPFFR1, GαoB, a Gi family specific intracellular effector fused to luciferase (BRET donor), a plasma membrane effector fused to GFP (BRET acceptor). After transfection, cells are cultured for 48 h at 37° C./5% CO2.
Receptor activity is detected by changes in BRET signal.
On the day of the assay, cells are detached using trypsin 0.05%, resuspended in assay buffer (1.8 mM CaCl2, 1 mM MgCl2, 2.7 mM KCl, 137 mM NaCl, 0.4 mM NaH2PO4, 5.5 mM D-Glucose, 11.9 mM NaHCO3, 25 mM Hepes) and seeded in 384 well plate at a density of 20,000 cells per well. Then, plates are equilibrated 3.5 hours at 37° C. before adding compounds.
Compounds and luciferase substrate are added to the cells using an automated device (Freedom Evo®, Tecan) and BRET readings are collected on EnVision (PerkinElmer) with specific filters (410 nm BW 80 nm, 515 nm BW 30 nm).
Agonist and antagonist activities of compounds are consecutively evaluated on the same cell plate. Agonist activity is first measured after 10 minutes incubation with compound alone on the cells. Then, cells are stimulated by an EC80 RFRP-3 concentration and luminescence is recorded for additional 10 minutes. EC80 RFRP-3 concentration is the concentration giving 80% of the maximal RFRP-3 response. Agonist or antagonist activities are evaluated in comparison to basal signals evoked by assay buffer or EC80 RFRP-3 alone, respectively.
For IC50 determination, a dose-response test is performed using 20 concentrations (ranging over 6 logs) of each compound. Dose-response curves are fitted using the sigmoidal dose-response (variable slope) analysis in GraphPad Prism software (GraphPad Software) and IC50 of antagonist activity is calculated. Dose-response experiments are performed in duplicate, in two independent experiments.

Structure (SMILES)	melting point [°C]	IC50 [1] [µM]
Cc1ncccc1-c1ccc(N)nc1N [Compound 84, 3-(2-methyl-3-pyridyl)pyridine-2,6-diamine]	192 to 198	> 1
Cc1ccc(-c2ccc(N)nc2N)c(OC(C)C)c1 [Compound 46, 3-(2-Isopropoxy-4-methyl-phenyl)-pyridine-2,6-diamine]	75 to 80	> 1
Cc1nc(F)ccc1-c1ccc(N)nc1N [Compound 85, 3-(6-fluoro-2-methyl-3-pyridyl)pyridine-2,6-diamine]	186 to 192	> 1
Cl.Nc1ccc(-c2ccccc2OCc2ccccc2)c(N)n1 [Compound 64, 3-(2-benzyloxyphenyl)pyridine-2,6-diamine]	50 to 60	< 0.1
Nc1ccc(-c2ccc(F)cc2Cl)c(N)n1 [Compound 45, 3-(2-Chloro-4-fluoro-phenyl)-pyridine-2,6-diamine]	150 to 155	0.5 to 1
Cl.Nc1ccc(-c2ccc(F)c3ccccc23)c(N)n1 [Compound 72, 3-(4-fluoro-1-naphthyl)pyridine-2,6-diamine]	119 to 126	< 0.1
Cc1cc(C(F)(F)F)ccc1-c1ccc(N)nc1N [Compound 57, 3-(2-Methyl-4-trifluoromethyl-phenyl)-pyridine-2,6-diamine]	60 to 65	> 1
Cl.N#Cc1ccccc1-c1ccc(N)nc1N [Compound 96, 2-(2,6-diamino-3-pyridyl)benzonitrile]	> 250	0.1 to 0.5
Cc1ccc(OC(C)C)c(-c2ccc(N)nc2N)c1 [Compound 49, 3-(2-Isopropoxy-5-methyl-phenyl)-pyridine-2,6-diamine]	78 to 81	0.5 to 1
CCc1nc(N)ccc1-c1ccccc1OC1CC1.Cl [Compound 31, 5-[2-(cyclopropoxy)phenyl]-6-ethyl-pyridin-2-amine]	60 to 80	< 0.1
Nc1ccc(-c2cccc3ccccc23)c(N)n1 [Compound 68, 3-(1-naphthyl)pyridine-2,6-diamine]	152 to 158	< 0.1
Cl.Nc1ccc(-c2ccccc2OCC2CC2)c(N)n1 [Compound 65, 3-[2-(cyclopropylmethoxy)phenyl]pyridine-2,6-diamine]	63 to 68	< 0.1
Cc1ccc(Cl)cc1-c1ccc(N)nc1N [Compound 56, 3-(5-Chloro-2-methyl-phenyl)-pyridine-2,6-diamine]	95 to 97	0.1 to 0.5
COc1ccc(-c2ccc(N)nc2N)c(C)c1 [Compound 40, 3-(4-Methoxy-2-methyl-phenyl)-pyridine-2,6-diamine]	150 to 158	> 1
Cc1cc(Cl)ccc1-c1ccc(N)nc1N [Compound 54, 3-(4-Chloro-2-methyl-phenyl)-pyridine-2,6-diamine]	80 to 85	> 1
CS(=O)(=O)c1ccccc1-c1ccc(N)nc1N.Cl [Compound 63, 3-(2-methylsulfonylphenyl)pyridine-2,6-diamine]	55 to 65	> 1
Cl.Nc1ccc(-c2ccc(O)c3ccccc23)c(N)n1 [Compound 74, 4-(2,6-diamino-3-pyridyl)naphthalen-1-ol]	160 to 166	0.5 to 1
Nc1ccc(-c2ccc(F)nc2)c(N)n1 [Compound 86, 3-(6-fluoro-3-pyridyl)pyridine-2,6-diamine]	170 to 178	> 1

Structure (SMILES)	melting point [°C]	IC50 [1] [µM]
CCc1nc(N)ccc1-c1ccccc1C1CC1.Cl [Compound 30, 5-(2-cyclopropylphenyl)-6-ethyl-pyridin-2-amine]	180 to 190	0.1 to 0.5
CCc1nc(N)ccc1-c1cccc2ccccc12.Cl [Compound 67, 6-ethyl-5-(1-naphthyl)pyridin-2-amine]	90 to 120	0.1 to 0.5
Cc1ccc(-c2ccc(N)nc2N)c2ccccc12.Cl [Compound 71, 3-(4-methyl-1-naphthyl)pyridine-2,6-diamine]	127 to 132	0.1 to 0.5
Cl.Nc1ccc(-c2ccc(Cl)c3ccccc23)c(N)n1 [Compound 73, 3-(4-chloro-1-naphthyl)pyridine-2,6-diamine]	135 to 140	< 0.1
CC(C)Oc1ccc(C(F)(F)F)cc1-c1ccc(N)nc1N [Compound 52, 3-(2-Isopropoxy-5-trifluoromethyl-phenyl)-pyridine-2,6-diamine]	100 to 103	> 1
COc1ccc2ccccc2c1-c1ccc(N)nc1N [Compound 69, 3-(2-methoxy-1-naphthyl)pyridine-2,6-diamine]	63 to 67	0.1 to 0.5
Cc1cc(N)ncc1-c1cccc(Cl)c1Cl [Compound 22, 5-(2,3-Dichloro-phenyl)-4-methyl-pyridin-2-ylamine]	94 to 97	> 1
COc1ccccc1-c1c(C)cc(N)nc1C [Compound 27, 5-(2-Methoxy-phenyl)-4,6-dimethyl-pyridin-2-ylamine]	178 to 181	> 1
Cc1cccc(C)c1-c1ccc(N)nc1N [Compound 51, 3-(2,6-Dimethyl-phenyl)-pyridine-2,6-diamine]	104 to 108	0.1 to 0.5
CC(C)Oc1ccc(F)cc1-c1ccc(N)nc1N [Compound 50, 3-(5-Fluoro-2-isopropoxy-phenyl)-pyridine-2,6-diamine]	93 to 97	0.5 to 1
COc1ncccc1-c1ccc(N)nc1N [Compound 89, 3-(2-methoxy-3-pyridyl)pyridine-2,6-diamine]	174 to 176	> 1
CSc1ccccc1-c1ccc(N)nc1N.Cl [Compound 59, 3-(2-Methylsulfanyl-phenyl)-pyridine-2,6-diamine]	73 to 78	0.1 to 0.5
COc1ccccc1-c1ccc(N)nc1C [Compound 26, 5-(2-Methoxy-phenyl)-6-methyl-pyridin-2-ylamine]	132 to 140	> 1
CC(C)Oc1ccc2ccccc2c1-c1ccc(N)nc1N [Compound 70, 3-(2-isopropoxy-1-naphthyl)pyridine-2,6-diamine]	40 to 43	0.5 to 1
CCc1nc(N)ccc1-c1ccccc1OC1CCCC1.Cl [Compound 76, 5-[2-(cyclopentoxy)phenyl]-6-ethyl-pyridin-2-amine]	80 to 93	< 0.1
Cc1cccc(-c2ccc(N)nc2N)c1Cl [Compound 58, 3-(2-chloro-3-methyl-phenyl)-pyridine-2,6-diamine]	109 to 114	0.1 to 0.5
Nc1ccc(-c2ccc(Cl)cc2F)c(N)n1 [Compound 41, 3-(4-Chloro-2-fluoro-phenyl)-pyridine-2,6-diamine]	134 to 139	> 1
CC(C)Oc1cc(F)ccc1-c1ccc(N)nc1N [Compound 53, 3-(4-Fluoro-2-isopropoxy-phenyl)-pyridine-2,6-diamine]	59 to 63	0.1 to 0.5
